Assay results as given in patent US9642889B2, “Macrocyclic inhibitors of Flaviviridae viruses” (Selcia Limited, priority 2012, dated 2017).
Read-outs that look alike come from different tables or passages of the source.

How the values were obtained:
[1] = system: Huh-7 HCV replicon cells (1b replicon); assay: anti-HCV activity in Huh-7 cell line harboring a HCV replicon (luciferase readout); assay type: cell-based; conditions: for EC50: inhibition of viral replication, Huh-7 HCV replicon cells, 3 days, read-out: EC50; for inhibition at 1 µM: Huh-7, read-out: Replicon 1b % inhibition at 1 μM, 1b replicon, 1 μM compound; for Replicon 1b % inhibition at 1 μM: 1b replicon, 1 μM compound
cyclophilin A = cyclophilin A (Homo sapiens, UniProt P62937); assay: Cyclophilin A TR-FRET competitive binding assay; conditions: competition with CsA-Cy5 for His-tagged CypA, two-hour incubation
Sequence of cyclophilin A (P62937 whole entry, species assumed): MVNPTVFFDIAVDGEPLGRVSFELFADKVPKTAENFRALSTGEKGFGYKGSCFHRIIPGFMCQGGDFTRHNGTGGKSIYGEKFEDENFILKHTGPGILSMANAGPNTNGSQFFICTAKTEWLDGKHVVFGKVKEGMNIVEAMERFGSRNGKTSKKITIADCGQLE
Experimental: Cyclophilin A TR-FRET Competitive Binding Assay
Inhibitor potency was measured using a competitive binding assay with a time-resolved fluorescence resonance energy transfer (TR-FRET) readout. […] An IC50 value was calculated using a four-parameter logistic fit.

Row | Compound | EC50 ([1]; Hepatitis C virus, Huh-7, 72 h) [µM] | inhibition at 1 µM ([1]; Hepatitis C virus) [%] | IC50 (cyclophilin A) [µM] | Replicon 1b % inhibition at 1 μM [1] [%] | EC50 [1] [µM] | Replicon 1b % inhibition at 1 μM ([1]; 1 µM) [%]
1 | CC(C)[C@@H]1OC(=O)[C@H](C)[C@H](O)CC/C=C/c2cccc(c2)[C@@H](C)NC(=O)[C@@H]2CCCN(N2)C(=O)[C@H](C)NC1=O [Compound 7, (E)-(2R,5S,11S,14S,17R,18R)-18-Hydroxy-14-isopropyl-2,11,17-trimethyl-15-oxa-3,9,12,28-tetraaza-tricyclo[21.3.1.1*5,9*]octacosa-1(26),21,23(27),24-tetraene 4,10,13,16-tetraone] | < 1 | 94 | < 0.1 |  |  | 
2 | CC(C)[C@@H]1OC(=O)C2(/C=C/c3ccc4ccc(nc4c3)[C@@H](C)NC(=O)[C@@H]3CCCN(N3)C(=O)[C@H](C)NC1=O)COC(C)(C)CO2 (single isomer, unassigned) [Compound 100] |  |  | < 0.1 | 100 | < 1 | 
3 | CC(C)[C@@H]1N[C@@H](C(F)(F)F)C(C)(C)/C=C/c2ccc3ccc(nc3c2)[C@@H](C)OC(=O)[C@@H]2CCCN(N2)C(=O)[C@H](C)NC1=O [Compound 32] | 1.1 to 10 | 56 | 0.101 to 1 |  |  | 
4 | CC(C)[C@@H]1NCCC/C=C/c2cc3cc(ccc3cn2)[C@@H](C)OC(=O)[C@@H]2CCCN(N2)C(=O)[C@H](C)NC1=O [Compound 20] | < 1 | 88 | 0.101 to 1 |  |  | 
5 | CON=C1CCC2(/C=C/c3ccc4ccc(nc4c3)[C@@H](C)NC(=O)[C@@H]3CCCN(N3)C(=O)[C@H](C)NC(=O)[C@H](C(C)C)OC2=O)CC1 (stereo partly drawn) [Compound 83] | < 1 | 100 | < 0.1 |  |  | 
6 | C[C@@H]1NC(=O)[C@H](C2CC2)OC(=O)C(C)(C)/C=C/c2ccc3ccc(nc3c2)[C@@H](C)NC(=O)[C@@H]2CCCN(N2)C1=O [Compound 78] | < 1 | 99 | < 0.1 |  |  | 
7 | C[C@@H]1NC(=O)[C@H](C2CCCC2)OC(=O)C2(/C=C/c3ccc4ccc(nc4c3)[C@@H](C)NC(=O)[C@@H]3CCCN(N3)C1=O)COCOC2 [Compound 63] | < 1 | 100 | < 0.1 |  |  | 
8 | CC(C)[C@@H]1OC(=O)C2(/C=C/c3ccc4ccc(nc4c3)[C@@H](C)NC(=O)[C@@H]3CCCN(N3)C(=O)[C@H](C)NC1=O)COC(=O)OC2 [Compound 98] | < 1 | 90 | < 0.1 |  |  | 
9 | C[C@@H]1NC(=O)[C@H](C(C)(C)C)OC(=O)C(C)(C)/C=C/c2ccc3ccc(nc3c2)[C@@H](C)NC(=O)[C@@H]2CCCN(N2)C1=O [Compound 70] | < 1 | 57 | 1 to 10 |  |  | 
10 | CC(C)[C@@H]1OC(=O)CCc2ccc(cc2)-c2cccc(c2)[C@@H](C)NC(=O)[C@@H]2CCCN(N2)C(=O)[C@H](C)NC1=O [Compound 6] | < 1 | 94 | < 0.1 |  |  | 
11 | CC([C@@H]1OC(=O)C(C)(C)/C=C/c2ccc3ccc(nc3c2)[C@@H](C)NC(=O)[C@@H]2CCCN(N2)C(=O)[C@H](C)NC1=O)C(F)(F)F (stereo partly drawn) [Compound 71] | < 1 | 96 | < 0.1 |  |  | 
12 | C[C@@H]1NC(=O)[C@@H](C2CC2)OC(=O)C(C)(C)/C=C/c2ccc3ccc(nc3c2)[C@@H](C)NC(=O)[C@@H]2CCCN(N2)C1=O [Compound 79] | 1.1 to 10 | 3 | 1 to 10 |  |  | 
13 | C[C@@H]1NC(=O)[C@H](C2CCOCC2)OC(=O)C(C)(C)/C=C/c2ccc3ccc(nc3c2)[C@@H](C)NC(=O)[C@@H]2CCCN(N2)C1=O [Compound 67] | < 1 | 67 | 0.101 to 1 |  |  | 
14 | CC(C)[C@@H]1OC(=O)C2(/C=C/c3ccc4ccc(nc4c3)[C@@H](C)NC(=O)[C@@H]3CCCN(N3)C(=O)[C@H](C)NC1=O)CCN(S(C)(=O)=O)CC2 [Compound 85] | < 1 | 98 | < 0.1 |  |  | 
15 | CC1/C=C/c2ccc3ccc(nc3c2)[C@@H](C)OC(=O)[C@@H]2CCCN(N2)C(=O)[C@H](C)NC(=O)[C@H](C(C)C)OC1 (single isomer, unassigned) [Compound 28] |  |  | < 0.1 |  | < 1 | 99
